According to US20240315992A1, “AMINOXY ACID-BASED ANTIBACTERIAL COMPOUNDS AND METHODS THEREOF” (The University of Hong Kong, priority 2023, published 2024):
In brackets after ≈: the same amount, converted by molar mass.

Key:
MRSA-USA300 = test: MIC by CLSI broth micro-dilution, MRSA-USA300; type: cell-based; conditions: Staphylococcus aureus, read-out: Minimum inhibitory concentration
Description: (§1) Aminoxy acids were synthesized by the standard peptide coupling procedures. Minimum inhibitory concentration was determined using CLSI broth micro-dilution method in 96-wells microtitre plates. Minimum inhibitory concentration is defined as the lowest concentration of the compound that inhibits visible growth of the bacteria. All experiments were performed three times. 24 compounds including aminoxy acid monomers and dipeptides have been identified to show toxicity against multidrug resistant Staphylococcus aureus Mu3 and summarized in Table 1. The minimum inhibitory concentration of compound 8 and compound 35 on other gram-positive bacteria was also evaluated and summarized in Table 2. […] As shown in FIGS. 3A-3B there are no observable hemolysis for compound 8 and compound 35 towards human red blood cell.
(§2) Bacteria were streaked from the glycerol stock into BHI agar and were incubated overnight. Single colony was picked for the overnight culture in cation-adjusted Mueller Hinton broth (CAMH), LB or BHI. The overnight culture was sub-cultured and regrew to exponential phase for the experiment.
(§3) MIC was determined by CLSI broth micro-dilution method in 96-wells microtitre plates. […] Optical density was recorded by DTX 880 multimode detector (Beckman Coulter, California, US). […]

M. smegmatis mc^2155 = test: MIC by CLSI broth micro-dilution, M. smegmatis; type: cell-based, Mycobacterium smegmatis; conditions: Mycolicibacterium smegmatis; M. smegmatis mc^2155, BHI medium; read-out: Minimum inhibitory concentration
Description: as §1, §2, §3

[1] = system: Staphylococcus aureus strain USA300-LAC; test: Lethal bacteremia infection model, survival; type: in vivo, Balb/c mice; conditions: 10 mg/kg/day intraperitoneal, twice per day, 7 days
Description: FIG. 8 is a line graph showing compound 8 and compound 35 rescue mice from Staphylococcus aureus bacteremia infection model. Statistical analysis was performed with a log rank test (Mantel Cox test). (*p<0.05).
Staphylococcus aureus strain USA300-LAC were cultured to the early exponential phase of growth, washed twice with sterile phosphate-buffered saline solution (PBS), and resuspended in PBS at 3×10^7 CFU/200 μL for lethal bacteremia model. The female Balb/c mice, 6-8 weeks, were infected intravenously (i.v.) through the tail vein with Staphylococcus aureus and randomized into three groups (N=11 for vehicle; N=12 for compound 8 and compound 35 respectively). Six hour after infection, mice received intraperitoneal injections of compound 8 or compound 35 (10 mg/kg/day) or an injection of buffer (PBS with 2.5% DMSO and 2% Tween-80) as the control. The compound and injection buffer treatments were performed twice per day at 12-h intervals. The challenged mice were monitored for 7 days, at which point all the remaining mice were sacrificed. Statistical analysis was performed with a log rank test (Mantel Cox test). (*p<0.05).

[2] = system: virulence proteins of Staphylococcus aureus ATCC 29213; test: Secretome analysis of virulence proteins; type: cell-based; conditions: 1.56 μM (0.5×MIC), 1.5 hours, supernatant
Description: The red dots represented proteins which were annotated as “Virulence” and “Secrete/extracellular” as subcellular location by UniprotKB. The curve is derived at FDR=0.05 and s0=0.1.
S. aureus ATCC 29213 cells were sub-cultured from an overnight culture to OD595 0.1 and then cultured for 5 hours at 37° C., 250 rpm. Cells were concentrated by centrifugation (3,000×g, 4° C., 15 minutes), washed with 1×PBS and resuspended in CAMH to give OD595 1.5. […] Cells were then concentrated by centrifugation (3,000×g, 15 minutes and 6,000×g, 5 minutes). The supernatant was filtered (0.2 μm) and then concentrated by Amicon Ultra 10 KDa filter. Protein concentration was quantified by Bradford assay.
To quench the reaction, dithiothreitol (12.5 mM; 25° C., 200 rpm) was added for 30 minutes. Endoprotinase LysC was subsequently added (Enzyme: protein ratio 1:200; 25° C., 700 rpm) for 2 hours. The samples were diluted 1:5 by 50 mM ammonium bicarbonate buffer and further digested by trypsin (Enzyme: protein ratio 1:20; 37° C.) for 16 hours. The reaction was quenched by the addition of formic acid until pH reached 2-3. Samples were then submitted to the HKU proteomics and metabolomics core facility for analysis.
The peptides were desalted using C18 StageTips. Eluted peptides were analyzed with nanoelute UPLC was coupled to Bruker TimsTOF Pro mass spectrometer. […]

Structure (SMILES) | MIC (MRSA-USA300) [µM] | MIC (M. smegmatis mc^2155) [µM] | rescue of mice from bacteremia infection (survival) [1] | secretion of the virulence proteins [2]
CC(C)C[C@H](ONC(=O)[C@@H](COCc1ccccc1)ONC(=O)c1cc(C(F)(F)F)cc(C(F)(F)F)c1)C(=O)Nc1ccc2c(c1)OC(F)(F)O2 [Compound 35] | 3.13 (≈ 2.3 µg/mL) | 1.56 (≈ 1.15 µg/mL) | can rescue mice | –
CC(C)C[C@H](ONC(=O)[C@@H](COCc1ccccc1)ONC(=O)c1cc(C(F)(F)F)cc(C(F)(F)F)c1)C(=O)Nc1ccccc1 [Compound 8] | 3.13 (≈ 2.05 µg/mL) | 12.5 (≈ 8.19 µg/mL) | can rescue mice | can reduce the secretion of the virulence proteins
